From ChEMBL document CHEMBL1158319, “New protopine and benzyltetrahydroprotoberberine alkaloids from Aristolochia constricta and their activity on isolated guinea-pig ileum” (J Nat Prod, 1997)

Tests used:
Assay type in all cases: functional, tissue-based
Conditions in all cases: Cavia porcellus, 0.5 h
Ileum [1] = assay: Antispasmodic activity in guinea pig ileum assessed as inhibition of acetylcholine-induced tissue contraction after 30 mins
Ileum [2] = assay: Antispasmodic activity in guinea pig ileum assessed as inhibition of electrically-induced tissue contraction after 30 mins
Ileum [3] = assay: Antispasmodic activity in guinea pig ileum assessed as inhibition of histamine-induced tissue contraction after 30 mins

Compound	IC50 (Ileum [1]) [µM]	IC50 (Ileum [2]) [µM]	IC50 (Ileum [3]) [µM]
O=C1Cc2ccc(O)cc2/C=N/C=C\c2cc(O)ccc21 [CONSTRICTOSINE]	75	66	51
COc1ccc2c(c1)/C=C\N=C\c1cc(OC)ccc1CC2=O	58	66	68
COc1ccc2c(c1)/C=N/CCc1cc(OC)ccc1C(=O)C2	20	19	22
COc1ccc2c(c1)/C=C\N=C\c1cc(O)ccc1CC2=O	85	86	59
O=C1Cc2ccc(O)cc2/C=N/CCc2cc(O)ccc21	26	21	26
